One block for each compound: values may come before it.
Columns and labels:
[1] = system: Androgen-induced PSA-luciferase; assay: Androgen-induced PSA (6.1 kb)-luciferase reporter assay in LNCaP cells; format: cell-based; conditions: Homo sapiens, R1881 1 nM, 24 h
Procedure: To determine the IC50, treatments were normalized to the maximum activity with androgen-induction (in the absence of test compounds, vehicle only) (Table 1).
Luciferase Assay: Lysates were thawed on ice then collected into V-bottom 96-well tissue culture plates. Lysates were centrifuged at 4° C. for 5 minutes at 4000 rpm. To measure luminescence of LNCaP cell lysates the Firefly Luciferase Assay System (Promega) was employed, according to manufacturer's protocol.
Comparisons between treatment and control groups were compared using Two-Way ANOVA with post-hoc Dunnett's and Tukey's tests. Differences were considered statistically significant at P values less than 0.05. Densitometric quantification of relative AR levels was determined by Image.

[2] = system: androgen responsive genes in LNCaP cells; assay: mRNA expression of androgen responsive genes in LNCaP cells (NanoString Androgen Receptor/Prostate Cancer gene panel)
[3] = system: VCaP tumors; assay: VCaP xenograft model, castrated male SCID Beige mice; format: in vivo; conditions: oral, castrated male SCID Beige mice (FIGS. 1-4)
Procedure: Tumor growth was measured in male SCID Beige mice bearing VCaP tumors. […] Individual tumor volume change from baseline measured on day 17 of the experiment (FIGS. 2A-2B). Serum prostate-specific antigen (PSA) was measured in mice at the end of each treatment (FIG. 3). Body weight of the mice were captured biweekly in the animals and normalized to baseline (FIG. 4).

[4] = system: AR full-length and AR V7 driven genes in LNCaP95 cells; assay: mRNA expression of androgen responsive genes in LNCaP95 (+R1881) cells (NanoString Androgen Receptor/Prostate Cancer gene panel)
Procedure: Relative mRNA expression in LNCaP95 (+R1881) was measured for Canonical AR target genes (FIG. 9A) and AR V7-activated genes (FIG. 9B).
Data shown in FIGS. 8A-8B and 9A-9B and Table 5 were generated using NanoString Androgen Receptor/Prostate Cancer gene panel.

Compound: CC(C)(c1ccc(OCc2ocnc2S(C)(=O)=O)cc1)c1cc(Cl)c(OCCCl)c(C#N)c1 [Compound A28]
IC50 [1]: 400 nM

Compound: CC(Oc1ccc(C(C)(C)c2cc(Cl)c(OCCCl)c(Cl)c2)cc1)c1ocnc1S(C)(=O)=O (centres unmarked) [Compound A35, 5-(1-(4-(2-(3,5-dichloro-4-(2-chloroethoxy)phenyl)propan-2-yl)phenoxy)ethyl)-4-(methylsulfonyl)oxazole]
IC50 [1]: 515 nM

Compound: CC(C)(c1ccc(OCc2ncc(S(C)(=O)=O)o2)cc1)c1cc(Cl)c(OCCCl)c(Cl)c1 [Compound A66]
IC50 [1]: 890 nM

Compound: CC(C)(c1ccc(OCc2ncc(S(C)(=O)=O)s2)cc1)c1cc(Cl)c(OCCCl)c(C#N)c1 [Compound A93]
IC50 [1]: 205 nM

Compound: CCS(=O)(=O)Nc1nccc(COc2ccc(C(C)(C)c3cc(Cl)c(OCCCl)c(C#N)c3)cc2)n1 [Compound A131]
IC50 [1]: 1100 nM

Compound: C[C@H](Oc1ccc(C(C)(C)c2cc(Cl)c(OCCCl)c(Cl)c2)cc1)c1ccnc(NS(C)(=O)=O)n1 [Compound A170]
IC50 [1]: 651 nM

Compound: CC(O)c1cc(C(=O)N[C@@H](C)Cn2ccc(-c3ccc(C#N)c(Cl)c3)n2)[nH]n1 (some centres unmarked) [Darolutamide, darolutamide, reference compound]
activity on gene expression in LNCaP ([2]; LNCaP cells, FIG. 7A-7B): not very active

Second part, led by results:

IC50 [1]: 592 nM
Compound: CC(C)(c1ccc(OCc2ocnc2S(C)(=O)=O)cc1)c1cc(Cl)c(OCCCl)c(Cl)c1 [Compound A13, 5-((4-(2-(3,5-dichloro-4-(2-chloroethoxy)phenyl)propan-2-yl)phenoxy)methyl)-4-(methylsulfonyl)oxazole]

IC50 [1]: 466 nM
Compound: Cc1cc(C(C)(C)c2ccc(OCc3ocnc3S(C)(=O)=O)cc2)cc(C#N)c1OCCCl [Compound A29]

IC50 [1]: 631 nM
Compound: CC(C)(c1ccc(OCc2coc(NS(C)(=O)=O)n2)cc1)c1cc(Cl)c(OCCCl)c(Cl)c1 [Compound A38, N-(4-((4-(2-(3,5-dichloro-4-(2-chloroethoxy)phenyl)propan-2-yl)phenoxy)methyl)oxazol-2-yl)methanesulfonamide]

IC50 [1]: 658 nM
Compound: CC(C)(c1ccc(OCc2ccnc(NS(C)(=O)=O)n2)cc1)c1cc(Cl)c(OCCCl)c(Cl)c1 [Compound A74]

IC50 [1]: 535 nM
Compound: CC(C)(c1ccc(OCc2ccnc(NS(C)(=O)=O)n2)cc1)c1cc(Cl)c(OCCCl)c(C#N)c1 [Compound A109, N-(4-((4-(2-(3-chloro-4-(2-chloroethoxy)-5-cyanophenyl)propan-2-yl)phenoxy)methyl)pyrimidin-2-yl)methanesulfonamide]
response in the androgen response genes FKBP5, TMPRSS2, KLK2, KLK3, and NKX3.1 (relative mRNA expression) ([2]; LNCaP cells, FIG. 6A): dose-dependent response
Log2Fold Change ACSL3 ([2]; LNCaP, 7.5 μM single agent): −3.62
Log2Fold Change AKAP12 ([2]; LNCaP, 7.5 μM single agent): −3.84
Log2Fold Change CDC6 ([2]; LNCaP, 7.5 μM single agent): −3.60
Log2Fold Change CENPN ([2]; LNCaP, 7.5 μM single agent): −2.13
Log2Fold Change EAF2 ([2]; LNCaP, 7.5 μM single agent): −3.81
Log2Fold Change ELL2 ([2]; LNCaP, 7.5 μM single agent): −3.05
Log2Fold Change ERRFI1 ([2]; LNCaP, 7.5 μM single agent): −2.76
Log2Fold Change FAM105A ([2]; LNCaP, 7.5 μM single agent): −2.78
Log2Fold Change FKBP5 ([2]; LNCaP, 7.5 μM single agent): −4.47
Log2Fold Change KLK2 ([2]; LNCaP, 7.5 μM single agent): −2.71
Log2Fold Change KLK3 ([2]; LNCaP, 7.5 μM single agent): −2.42
Log2Fold Change NCAPD3 ([2]; LNCaP, 7.5 μM single agent): −4.40
Log2Fold Change NDRG1 ([2]; LNCaP, 7.5 μM single agent): −4.17
Log2Fold Change NKX3-1 ([2]; LNCaP, 7.5 μM single agent): −2.28
Log2Fold Change PLPP1 ([2]; LNCaP, 7.5 μM single agent): −3.53
Log2Fold Change PMEPA1 ([2]; LNCaP, 7.5 μM single agent): −2.16
Log2Fold Change RHOU ([2]; LNCaP, 7.5 μM single agent): −3.03
Log2Fold Change SNAI2 ([2]; LNCaP, 7.5 μM single agent): −1.79
Log2Fold Change STEAP4 ([2]; LNCaP, 7.5 μM single agent): −4.22
Log2Fold Change TMPRSS2 ([2]; LNCaP, 7.5 μM single agent): −3.32
modulation of androgen receptor full-length driven genes ([2]; LNCaP, FIGS. 5A-5B and Table 4): can modulate androgen receptor0 full-length driven genes similar to enzalutamide
anti-tumor response ([3]; in combination with enzalutamide): excellent anti-tumor response
anti-tumor response ([3]; monotherapy): excellent anti-tumor response
log2 Fold Change ADAMTS1 ([4]; 7.5 μM): −3.96
log2 Fold Change CCND1 ([4]; 7.5 μM): −3.96
log2 Fold Change FKBP5 ([4]; 7.5 μM): −4.18
log2 Fold Change KLK2 ([4]; 7.5 μM): −5.07
log2 Fold Change KLK3 ([4]; 7.5 μM): −5.48
log2 Fold Change NCAPD3 ([4]; 7.5 μM): −3.8
log2 Fold Change NDRG1 ([4]; 7.5 μM): −4.47
log2 Fold Change NKX3-1 ([4]; 7.5 μM): −4.23
log2 Fold Change PMEPA1 ([4]; 7.5 μM): −3.93
log2 Fold Change PRR15L ([4]; 7.5 μM): −3.89
modulation of AR full-length and AR V7 driven genes ([4]; FIGS. 8A-8B and 9A-9B): can modulate AR full-length and AR V7 driven genes

IC50 [1]: 258 nM
Compound: Cc1cnc(NS(C)(=O)=O)nc1COc1ccc(C(C)(C)c2cc(Cl)c(OCCCl)c(C#N)c2)cc1 [Compound A122]

IC50 [1]: 629 nM
Compound: CCS(=O)(=O)Nc1nc(COc2ccc(C(C)(C)c3cc(Cl)c(OCCCl)c(C#N)c3)cc2)co1 [Compound A126]

IC50 [1]: 601 nM
Compound: CC(C)(c1ccc(OCc2nc(S(C)(=O)=O)cs2)cc1)c1cc(Cl)c(OCCCl)c(C#N)c1 [Compound A136]
